The source of these data is patent US20090197897A1, “Novel Oxadiazole Derivatives and Their Use as Positive Allosteric Modulators of Metabotropic Glutamate Receptors” (Addex Pharma SA, priority 2005, published 2009).

Each structure is given as a SMILES string.

One series deals with T1, rat mGluR5 (Rattus norvegicus, UniProt P31424).
T1 construct: expressed in transfected cells
Briefly: mGluR5 assay on HEK-expressing rat mGluR5 (fluorescent cell based Ca2+ mobilization assay). The settings on record: for activation of rat mGluR5 receptors in HEK-rat mGluR5 cell line: without co-addition of glutamate or mGluR5 agonist; for EC50: HEK-293 cells stably expressing rat mGluR5, no co-addition of glutamate, mean of at least three independent experiments in duplicate, read-out: Ca++ Flux (mean EC50). As for the experimental part: mGluR5 Assay on HEK-Expressing Rat mGluR5
Positive functional expression of HEK-293 cells stably expressing rat mGluR5 receptor was determined by measuring intracellular Ca^2+ changes using a Fluorometric Imaging Plate Reader (FLIPR, Molecular Devices, Sunnyvale, Calif.) in response to glutamate or selective known mGluR5 agonists and antagonists. Rat mGluR5 RT-PCR products in HEK-293 cells were sequenced and found 100% identical to rat mGluR5 Genbank reference sequence (NM_017012). HEK-293 cells expressing rmGluR5 were maintained in media containing DMEM, dialyzed Fetal Bovine Serum (10%), Glutamax™ (2 mM), Penicillin (100 units/ml), Streptomycin (100 μg/ml), Geneticin (100 μg/ml) and Hygromycin-B (40 μg/ml) at 37° C./5% CO2.
After one day of incubation, cells were washed with assay buffer containing: 142 mM NaCl, 6 mM KCl, 1 mM […], 1 mM CaCl2, 20 mM HEPES, 1 g/L glucose, 0.125 mM sulfinpyrazone, pH 7.4. After 60 min of loading with 4 uM Fluo-4 (TefLabs, Austin, Tex.), the cells were washed three times with 50 μl of PBS Buffer and resuspended in 45 μl of assay Buffer. The plates were then transferred to a Fluorometric Imaging Plate Reader (FLIPR, Molecular Devices, Sunnyvale, Calif.) for the assessment of intracellular calcium flux. After monitoring the baseline fluorescence for 10 seconds, increasing concentrations of representative compound (from 0.01 to 60 μM) of the present invention diluted in Assay Buffer (15 μl of 4× dilutions) was added to the cell. The final DMSO concentration in the assay was 0.3%. In each experiment, fluorescence was then monitored as a function of time for 3 minutes and the data analyzed using Microsoft Excel and GraphPad Prism. Each data point was also measured two times.
Under these experimental conditions, this HEK-rat mGluR5 cell line is able to directly detect positive allosteric modulators without the need of co-addition of glutamate or mGluR5 agonist.
The concentration-response curves of representative compounds of the present invention were generated using the Prism GraphPad software (Graph Pad Inc, San Diego, USA). The curves were fitted to a four-parameter logistic equation:
(Y=Bottom+(Top−Bottom)/(1+10̂((Log EC50−X)*Hill Slope)
allowing determination of EC50 values.
The Table 1 below represents the mean EC50 obtained from at least three independent experiments of selected molecules performed in duplicate.
(Calcium flux is commonly read through the fluorescence of an indicator in the cells.)

In another series the target is T2, mGluR5 (Rattus norvegicus, UniProt P31424).
T2 construct: positive allosteric modulators of mGluR5 receptors in native preparations; endogenous in cells; host or cells: primary cortical astrocytes from Sprague-Dawley rat embryos (day 16 to 19)
The following applies: Liu et al 2006, Zhang et al 2005; cited from earlier work.

T2 sequence (P31424 21-1203): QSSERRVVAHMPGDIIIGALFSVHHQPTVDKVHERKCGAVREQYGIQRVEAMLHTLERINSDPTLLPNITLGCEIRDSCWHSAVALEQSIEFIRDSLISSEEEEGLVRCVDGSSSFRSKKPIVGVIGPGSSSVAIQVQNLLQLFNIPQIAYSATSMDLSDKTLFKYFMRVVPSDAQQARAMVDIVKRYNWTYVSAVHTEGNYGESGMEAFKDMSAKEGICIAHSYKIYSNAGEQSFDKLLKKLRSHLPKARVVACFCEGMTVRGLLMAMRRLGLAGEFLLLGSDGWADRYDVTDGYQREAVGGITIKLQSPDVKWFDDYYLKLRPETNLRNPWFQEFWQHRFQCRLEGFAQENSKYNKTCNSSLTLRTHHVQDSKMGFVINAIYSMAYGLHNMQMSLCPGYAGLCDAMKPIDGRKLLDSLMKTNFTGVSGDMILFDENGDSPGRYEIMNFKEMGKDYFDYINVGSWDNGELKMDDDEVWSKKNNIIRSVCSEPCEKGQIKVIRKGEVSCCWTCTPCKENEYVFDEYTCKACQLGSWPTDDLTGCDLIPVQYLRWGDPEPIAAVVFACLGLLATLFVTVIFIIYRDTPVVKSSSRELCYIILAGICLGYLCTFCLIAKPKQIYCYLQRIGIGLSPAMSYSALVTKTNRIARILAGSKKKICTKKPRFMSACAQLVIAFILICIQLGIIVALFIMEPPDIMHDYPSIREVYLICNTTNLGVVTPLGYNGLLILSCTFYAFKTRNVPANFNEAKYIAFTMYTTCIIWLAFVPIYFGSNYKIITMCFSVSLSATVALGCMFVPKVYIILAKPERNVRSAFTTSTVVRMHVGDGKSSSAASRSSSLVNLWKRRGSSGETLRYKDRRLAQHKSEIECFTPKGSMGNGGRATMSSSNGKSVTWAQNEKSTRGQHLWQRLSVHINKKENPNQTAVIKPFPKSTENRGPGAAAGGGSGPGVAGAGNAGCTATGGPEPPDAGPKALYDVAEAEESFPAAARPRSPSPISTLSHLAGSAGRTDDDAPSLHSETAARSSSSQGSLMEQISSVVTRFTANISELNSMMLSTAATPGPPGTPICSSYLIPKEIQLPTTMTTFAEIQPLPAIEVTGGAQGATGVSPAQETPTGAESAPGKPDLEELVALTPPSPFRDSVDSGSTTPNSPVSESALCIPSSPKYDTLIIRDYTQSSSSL
T1 sequence (P31424 21-1171 isoform P31424-2 limits assumed): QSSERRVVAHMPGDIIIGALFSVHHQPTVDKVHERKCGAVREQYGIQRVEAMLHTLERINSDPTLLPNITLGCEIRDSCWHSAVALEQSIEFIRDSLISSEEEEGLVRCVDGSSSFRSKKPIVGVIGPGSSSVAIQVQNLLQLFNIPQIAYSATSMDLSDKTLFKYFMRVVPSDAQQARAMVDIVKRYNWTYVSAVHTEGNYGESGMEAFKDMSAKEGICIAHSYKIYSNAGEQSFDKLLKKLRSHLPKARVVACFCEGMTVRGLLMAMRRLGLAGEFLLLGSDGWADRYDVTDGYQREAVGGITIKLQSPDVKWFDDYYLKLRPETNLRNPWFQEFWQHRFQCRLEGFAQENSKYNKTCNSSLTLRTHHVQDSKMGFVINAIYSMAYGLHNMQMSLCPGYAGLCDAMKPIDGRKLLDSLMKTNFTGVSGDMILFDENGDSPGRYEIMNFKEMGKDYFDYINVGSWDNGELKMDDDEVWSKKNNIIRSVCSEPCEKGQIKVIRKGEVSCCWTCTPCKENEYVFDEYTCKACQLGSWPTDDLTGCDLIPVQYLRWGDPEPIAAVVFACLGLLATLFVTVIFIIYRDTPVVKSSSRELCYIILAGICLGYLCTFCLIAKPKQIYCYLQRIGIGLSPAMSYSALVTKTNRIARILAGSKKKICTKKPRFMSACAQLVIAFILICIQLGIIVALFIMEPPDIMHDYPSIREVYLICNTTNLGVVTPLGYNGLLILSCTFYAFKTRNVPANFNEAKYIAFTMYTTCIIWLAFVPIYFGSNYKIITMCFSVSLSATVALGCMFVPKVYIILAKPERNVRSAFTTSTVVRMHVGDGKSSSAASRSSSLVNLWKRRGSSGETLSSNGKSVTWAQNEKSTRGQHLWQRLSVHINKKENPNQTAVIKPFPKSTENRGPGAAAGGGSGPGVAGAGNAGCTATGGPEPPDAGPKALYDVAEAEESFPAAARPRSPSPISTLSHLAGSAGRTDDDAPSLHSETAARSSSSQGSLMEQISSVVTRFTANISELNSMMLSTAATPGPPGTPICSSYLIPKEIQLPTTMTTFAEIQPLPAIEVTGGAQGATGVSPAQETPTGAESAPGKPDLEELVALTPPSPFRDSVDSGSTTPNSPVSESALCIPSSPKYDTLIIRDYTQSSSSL

For the compound `N#Cc1cccc(C(=O)Nc2cc(-c3ccccc3)nn2-c2ccccc2)c1` [CDPPB, reference compound], at rat mGluR5, the “activation of rat mGluR5 receptors in HEK-rat mGluR5 cell line” value (“activation of rat mGluR5 receptors” below) is reported as “activating”. For the same compound, the “activity in rat cortical astrocytes culture in the absence of added glutamate” value (from here on “activity”) on mGluR5 was “inactive”.
Take `O=C(Nc1ccc(Cl)cc1CN1C(=O)c2ccccc2C1=O)c1ccccc1O` [CPPHA, reference compound]: on rat mGluR5, the “activation of rat mGluR5 receptors” value is listed as “activating”. Also, on mGluR5, the “activity” value was “inactive”.
For `Fc1cccc(/C=N/N=C/c2cccc(F)c2)c1` [DFB, reference compound], the “activation of rat mGluR5 receptors” value at rat mGluR5 is “activating”. The “activity” value on mGluR5 is “inactive”.
`O=C(C1CCOCC1)N1CCC[C@H](c2nc(-c3ccc(F)cc3)no2)C1` [Example 9, {(S)-3-[3-(4-Fluoro-phenyl)-[1,2,4]oxadiazol-5-yl]-piperidin-1-yl}-(tetrahydro-pyran-4-yl)-methanone] yielded a melting point of 98 to 100 °C. Moreover, at rat mGluR5, the EC50 was 1 to 10 µM.
`O=C(C1CCCCC1)N1CCC[C@H](c2nc(-c3ccc(F)cc3)no2)C1` [Example 10, Cyclohexyl-{(S)-3-[3-(4-fluoro-phenyl)-[1,2,4]oxadiazol-5-yl]-piperidin-1-yl}-methanone] returned a melting point of 80 to 85 °C. The EC50 on rat mGluR5 lay within 1 to 10 µM.
`O=C(c1ccccc1)c1cccc(C(=O)N2CCC[C@H](c3nc(-c4ccc(F)cc4)no3)C2)c1` [Example 11, (3-Benzoyl-phenyl)-{(S)-3-[3-(4-fluoro-phenyl)-[1,2,4]oxadiazol-5-yl]-piperidin-1-yl}-methanone] came in with a melting point of 158 to 163 °C. Moreover, the EC50 on rat mGluR5 lay in the range of 1 to 10 µM.
For `O=C(c1c(F)cc(F)cc1F)N1CCC[C@H](c2nc(-c3ccc(F)cc3)no2)C1` [Example 12, {(S)-3-[3-(4-Fluoro-phenyl)-[1,2,4]oxadiazol-5-yl]-piperidin-1-yl}-(2,4,6-trifluoro-phenyl)-methanone] the same measures were 125 to 130 °C and 1 to 10 µM.
On to `Cc1ncccc1C(=O)N1CCC[C@H](c2nc(-c3ccc(F)cc3)no2)C1` [Example 16, {(S)-3-[3-(4-Fluoro-phenyl)-[1,2,4]oxadiazol-5-yl]-piperidin-1-yl}-(2-methyl-pyridin-3-yl)-methanone], for which the melting point was in the range of 115 to 116 °C. Also, the EC50 on rat mGluR5 was in the range of 1 to 10 µM.
The corresponding values for `Cc1cc(C(=O)N2CCC[C@H](c3nc(-c4ccc(F)cc4)no3)C2)c(C)n1C` [Example 17, {(S)-3-[3-(4-Fluoro-phenyl)-[1,2,4]oxadiazol-5-yl]-piperidin-1-yl}-(1,2,5-trimethyl-1H-pyrrol-3-yl)-methanone] are 122 to 126 °C and 1 to 10 µM.
For `Cc1cc(C(=O)N2CCC[C@H](c3nc(-c4ccc(F)cc4)no3)C2)c(C)o1` [Example 23, (2,5-Dimethyl-furan-3-yl)-{(S)-3-[3-(4-fluoro-phenyl)-[1,2,4]oxadiazol-5-yl]-piperidin-1-yl}-methanone] the same measures were 114 to 118 °C and under 1 µM.
For `O=C(c1cccc2c1OCCO2)N1CCC[C@H](c2nc(-c3ccc(F)cc3)no2)C1` [Example 25, (S)-(2,3-Dihydro-benzo[1,4]dioxin-5-yl)-{3-[3-(4-fluoro-phenyl)-[1,2,4]oxadiazol-5-yl]-piperidin-1-yl}-methanone] the same measures were 57 to 60 °C and 1 to 10 µM.
The compound `COc1cc(C(=O)N2CCC[C@H](c3nc(-c4ccc(F)cc4)no3)C2)ccc1F` [Example 26, (S)-(4-Fluoro-3-methoxy-phenyl)-{3-[3-(4-fluoro-phenyl)-[1,2,4]oxadiazol-5-yl]-piperidin-1-yl}-methanone] showed a melting point of 109 to 111 °C. Moreover, the EC50 at rat mGluR5 was in the range of 1 to 10 µM.
For `Cc1cnccc1C(=O)N1CCC[C@H](c2nc(-c3ccc(F)cc3)no2)C1` [Example 27, (S)-{3-[3-(4-Fluoro-phenyl)-[1,2,4]oxadiazol-5-yl]-piperidin-1-yl}-(3-methyl-pyridin-4-yl)-methanone] the same measures were 59 to 63 °C and 1 to 10 µM.
The corresponding values for `Cc1c[nH]cc1C(=O)N1CCC[C@H](c2nc(-c3ccc(F)cc3)no2)C1` [Example 43, {(S)-3-[3-(4-Fluoro-phenyl)-[1,2,4]oxadiazol-5-yl]-piperidin-1-yl}-(4-methyl-1H-pyrrol-3-yl)-methanone] are 167.5 to 168.9 °C and 1 to 10 µM.
In turn, `O=C(c1ccc(F)c(F)c1)N1CCC[C@H](c2nc(-c3ccsc3)no2)C1` [Example 45, (3,4-Difluoro-phenyl)-[(S)-3-(3-thiophen-3-yl-[1,2,4]oxadiazol-5-yl)-piperidin-1-yl]-methanone] showed a melting point of 92 to 97 °C. For the same compound, the EC50 on rat mGluR5 was under 1 µM.
The corresponding values for `O=C(c1ccc(F)cc1)N1CCC[C@H](c2nc(-c3cscn3)no2)C1` [Example 50, (4-Fluoro-phenyl)-[(S)-3-(3-thiazol-4-yl-[1,2,4]oxadiazol-5-yl)-piperidin-1-yl]-methanone] are 118 to 120 °C and 1 to 10 µM.
For `O=C(c1ccc(F)c(F)c1)N1CCC[C@H](c2nc(-c3cscn3)no2)C1` [Example 51, (3,4-Difluoro-phenyl)-[(S)-3-(3-thiazol-4-yl-[1,2,4]oxadiazol-5-yl)-piperidin-1-yl]-methanone] the same measures were 107 to 109 °C and 1 to 10 µM.
The corresponding values for `O=C(c1ccc(F)c(F)c1)N1CCC[C@H](c2nc(-c3ccncc3)no2)C1` [Example 52, (3,4-Difluoro-phenyl)-[(S)-3-(3-pyridin-4-yl-[1,2,4]oxadiazol-5-yl)-piperidin-1-yl]-methanone] are 102 to 106 °C and under 1 µM.
`O=C(c1ccc(F)c(F)c1)N1CCC[C@H](c2nc(-c3ccccn3)no2)C1` [Example 54, (3,4-Difluoro-phenyl)-[(S)-3-(3-pyridin-2-yl-[1,2,4]oxadiazol-5-yl)-piperidin-1-yl]-methanone] came in with a melting point of 135 to 137 °C. Further, the EC50 on rat mGluR5 is under 1 µM.
The corresponding values for `CN(C)c1ccc(-c2noc([C@H]3CCCN(C(=O)c4ccc(F)cc4)C3)n2)cc1` [Example 58, {(S)-3-[3-(4-Dimethylamino-phenyl)-[1,2,4]oxadiazol-5-yl]-piperidin-1-yl}-(4-fluoro-phenyl)-methanone] are 147 to 153 °C and over 10 µM.
For `O=C(c1ccnc(F)c1)N1CCC[C@H](c2nc(-c3ccc(F)cc3)no2)C1` [Example 77, {(S)-3-[3-(4-Fluoro-phenyl)-[1,2,4]oxadiazol-5-yl]-piperidin-1-yl}-(2-fluoro-pyridin-4-yl)-methanone] the same measures were 93 to 95 °C and under 1 µM.

Usually melting point stands for the temperature, or range, at which the solid turns liquid. The EC50 is the concentration needed to bring the measured effect to its halfway point.
